Assay results: patent US7285664B2, “Heterocyclic or benzenic derivatives of lipoic acid, their preparation and their use as medicaments” (S.C.R.A.S. Societe de Conseils de Recherches et …, priority 2000, dated 2007)
Counter-ions that a name gives are not always drawn.

test system: HT-22 cells; experiment: Effects on the oxidative stress induced by glutamate on cells in culture (HT-22), MTT viability; type: cell-based; settings: Mus musculus; protection of HT-22 cells from glutamate (5 mM); viability after 24 hours by MTT
Method: Study of the Effects on the Oxidative Stress Induced by Glutamate on Cells in Culture (HT-22):
The inhibitory activity of the products of the invention is determined by measuring their ability to protect the cells of a mouse hippocampal cell line (HT-22) from oxidative stress caused by glutamate. The biosynthesis of glutathione, an essential element in cell detoxification of free radicals, requires the active transport of cystine to inside the cell. The glutamate by opposing the penetration of cystine causes a reduction in the level of gluthatione which leads to the death of the cell by oxidative stress (Demerle-Pallardy, C. et al., J. Neurochem. (2000), 74, 2079-2086; Davis, J. B. and Maher, P., Brain Res., (1994) 652: 169-173; Murphy, T. H. et al., Neuron, (1989) 2: 1547-1558). The cells are cultured at 37° C. in a DMEM medium with 10% of fetal calf serum added to it. The tests are carried out in 96-well plates containing 5000 cells per well. The glutamate (5 mM) is added to the medium containing or not containing the products to be tested. The cell viability is tested after 24 hours by the MTT process (Hansen, M. B. et al., J. Immunol. Processes (1989) 119: 203-210). The ability of the compounds to protect the cells from the toxic action of the glutamate is estimated in EC50, calculated relative to the viability of cells which have not been subjected to the action of the glutamate considered as 100% viability.

Row | SMILES | EC50 [µM]
1 | COc1cc(N2CCN(C(=O)NCCCCC3CCSS3)CC2)ccc1N=C(N)c1cccs1 (stereo not drawn) [Example 9, 4-(4-{[amino(2-thienyl)methylidene]amino}-3-methoxyphenyl)-N-[4-(1,2-dithiolan-3-yl)butyl]-1-piperazinecarboxamide] | ≤ 4
2 | COc1cc(N=C(N)c2cccs2)ccc1N1CCN(C(=O)NCCCCC2CCSS2)CC1 (stereo not drawn) [Example 8, 4-(4-{[amino(2-thienyl)methylidene]amino}-2-methoxyphenyl)-N-[4-(1,2-dithiolan-3-yl)butyl]-1-piperazinecarboxamide] | ≤ 4
3 | N#Cc1cc(N=C(N)c2cccs2)ccc1N1CCN(C(=O)NCCCCC2CCSS2)CC1 (stereo not drawn) [Example 10, 4-(4-{[amino(2-thienyl)methylidene]amino}-2-cyanophenyl)-N-[4-(1,2-dithiolan-3-yl)butyl]-1-piperazinecarboxamide] | ≤ 4
4 | NC(=Nc1ccc(N2CCN(C(=O)CCCCC3CCSS3)CC2)cc1)c1cccs1 (stereo not drawn) [Example 1, N′-(4-{4-[5-(1,2-dithiolan-3-yl)pentanoyl]-1-piperazinyl)phenyl)-2-thiophenecarboximidamide hydrochloride] | ≤ 4
5 | NC(=Nc1cccc(CN2CCN(C(=O)CC3CCSS3)CC2)c1)c1cccs1 (stereo not drawn) [Example 4, N′-[3-({4-[2-(1,2-dithiolan-3-yl)acetyl]-1-piperazinyl}methyl)phenyl]-2-thiophenecarboximidamide] | ≤ 4
6 | NC(=Nc1cccc(CN2CCN(C(=O)NCCCCC3CCSS3)CC2)c1)c1cccs1 (stereo not drawn) [Example 11, 4-(3-{[amino(2-thienyl)methylidene]amino}benzyl)-N-[4-(1,2-dithiolan-3-yl)butyl]-1-piperazinecarboxamide] | ≤ 4
7 | Cc1cc(N2CCN(C(=O)NCCCCC3CCSS3)CC2)ccc1N=C(N)c1cccs1 (stereo not drawn) [Example 7, 4-(4-{[amino(2-thienyl)methylidene]amino}-3-methylphenyl)-N-[4-(1,2-dithiolan-3-yl)butyl]-1-piperazinecarboxamide] | ≤ 4
8 | NC(=Nc1ccc(N2CCN(C(=O)NCCCCC3CCSS3)CC2)cc1)c1cccs1 (stereo not drawn) [Example 5, 4-(4-{[amino(2-thienyl)methylidene]amino}phenyl)-N-[4-(1,2-dithiolan-3-yl)butyl]-1-piperazinecarboxamide] | ≤ 4
9 | NC(=Nc1ccc(N2CCN(C(=O)CC3CCSS3)CC2)cc1)c1cccs1 (stereo not drawn) [Example 2, N′-(4-{4-[2-(1,2-dithiolan-3-yl)acetyl]-1-piperazinyl}phenyl)-2-thiophenecarboximidamide] | ≤ 4
